In ChEMBL document CHEMBL1145319, “Modeling and synthesis of non-cyclic derivatives of GPI-1046 as potential FKBP ligands with neurotrophic properties” (Bioorg Med Chem Lett, 2006):

What was measured:
[1] = target: T1, Peptidyl-prolyl cis-trans isomerase FKBP4 (Homo sapiens) (UniProt Q02790); assay: Neurotrophic activity in chick dorsal root ganglion at 1 pM in presence of NGF after 48 hrs relative to control; type: functional, tissue-based; conditions: Gallus gallus, target entry is the homologue from another species
T1 sequence (whole entry): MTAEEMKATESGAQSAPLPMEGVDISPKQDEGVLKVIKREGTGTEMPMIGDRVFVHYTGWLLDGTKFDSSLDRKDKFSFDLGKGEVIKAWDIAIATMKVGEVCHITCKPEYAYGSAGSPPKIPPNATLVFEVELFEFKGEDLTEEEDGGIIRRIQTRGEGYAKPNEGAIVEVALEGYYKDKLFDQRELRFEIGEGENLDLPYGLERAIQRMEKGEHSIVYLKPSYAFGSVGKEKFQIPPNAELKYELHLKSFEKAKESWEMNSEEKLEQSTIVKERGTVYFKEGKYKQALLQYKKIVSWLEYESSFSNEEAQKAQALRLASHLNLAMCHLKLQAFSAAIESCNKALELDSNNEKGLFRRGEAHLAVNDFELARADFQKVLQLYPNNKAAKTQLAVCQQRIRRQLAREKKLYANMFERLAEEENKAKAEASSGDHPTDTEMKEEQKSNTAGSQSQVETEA

[2] = target: T1, Peptidyl-prolyl cis-trans isomerase FKBP4 (Homo sapiens); assay: Neurotrophic activity in chick dorsal root ganglion at 100 pM in presence of NGF after 48 hrs relative to control; type: functional, tissue-based; conditions: Gallus gallus, target entry is the homologue from another species

Row | Compound | Activity [1] | Activity [2]
1 | CC(C)C[C@H](NC(=O)C(=O)C(C)(C)C)C(=O)OCCCC1CCCCC1 | 123% | 101%
2 | CC(C)[C@H](NC(=O)C(=O)C(C)(C)C)C(=O)OCCCOc1ccccc1 | 85% | 93%
3 | CC(C)[C@H](NC(=O)C(=O)C(C)(C)C)C(=O)OCCCc1ccccc1 | 65% | 78%
4 | CC(C)C[C@H](NC(=O)C(=O)C(C)(C)C)C(=O)OCCCc1cccnc1 | 129% | 65%
5 | CC(C)C[C@H](NC(=O)C(=O)C(C)(C)C)C(=O)OCCCOc1ccccc1 | 108% | 93%
6 | CC(C)[C@H](NC(=O)C(=O)C(C)(C)C)C(=O)OCCCC1CCCCC1 | 136% | 45%
7 | CC(C)C[C@H](NC(=O)C(=O)C(C)(C)C)C(=O)OCCCc1ccccc1 | 73% | 92%
8 | CCC(C)(C)C(=O)C(=O)N[C@H](C(=O)OCCCc1ccccc1)C(C)C | 39% | 117%
9 | CCC(C)(C)C(=O)C(=O)N1CCC[C@H]1C(=O)OCCCc1cccnc1 |  | 120%
10 | CCC(C)(C)C(=O)C(=O)N[C@H](C(=O)OCCCc1cccnc1)C(C)C | 100% | 120%
11 | CCC(C)(C)C(=O)C(=O)N[C@H](C(=O)OCCc1ccccc1C(F)(F)F)C(C)C | 123% | 207%
12 | CC(C)[C@H](NC(=O)C(=O)C(C)(C)C)C(=O)OCCCc1cccnc1 | 115% | 136%
